Series [1] has as its system Collagen Type 3. Briefly: Quantitative RT-PCR of liver, Collagen Type 3 mRNA, NASH mice. The class given is in vivo, C57BL/6J mice. Particulars: 10 mg/kg oral QD 9-12 wks, 12 weeks of age, mean ± SD, n = 8, Normal 1.00 ± 0.16, Disease-control 2.27 ± 0.35, tended to be down-regulated, 10 mg/kg. As to the method:
(§1) Total RNA was extracted from liver samples using RNAiso (Takara Bio, Japan) according to the manufacturer's instructions. One μg of RNA was reverse-transcribed using a reaction mixture containing 4.4 mM MgCl2 (Roche, Switzerland), 40 U RNase inhibitor (Toyobo, Japan), 0.5 mM dNTP (Promega, USA), 6.28 μM random hexamer (Promega), 5× first strand buffer (Promega), 10 mM dithiothreitol (Invitrogen, USA) and 200 U MMLV-RT (Invitrogen) in a final volume of 20 μL. The reaction was carried out for 1 hour at 37° C., followed by 5 minutes at 99° C. Real-time PCR was performed using real-time PCR DICE and SYBR premix Taq (Takara Bio). To calculate the relative mRNA expression level, the expression of each gene was normalized to that of reference gene 36B4 (gene symbol: Rplp0). Information of PCR-primer sets and the plate layout was described in Table 1.

Series [2] has as its system NASH mice. Briefly: Serum TG in NASH mice. The class given is in vivo, C57BL/6J mice. To be noted: 10 mg/kg oral QD 9-12 wks, mean±SD, Disease-control 558±256, no significant difference. As to the method: (§2) Non-fasting blood glucose was measured in whole blood using Life Check (EIDIA, Japan). For serum biochemistry, blood was collected in polypropylene tubes without anticoagulant and kept at room temperature for 30 minutes, followed by at 4° C. for 1 hour. The blood samples were then centrifuged at 1,000×g for 15 minutes at 4° C. The supernatant was collected and stored at −80° C. until use. Serum ALT and TG levels were measured by FUJI DRI-CHEM 7000 (Fujifilm, Japan).

Series [3] relates to α-SMA. Briefly: Quantitative RT-PCR of liver, α-SMA mRNA, NASH mice. It is filed as in vivo, C57BL/6J mice. Particulars: 10 mg/kg oral QD 9-12 wks, 12 weeks of age, mean ± SD, n = 8, Normal 1.00 ± 0.60, Disease-control 2.43 ± 1.33, no significant difference, 10 mg/kg. As to the method:
as §1

In series [4] the test system is NASH mice. In words: Liver weight and liver-to-body weight ratio in NASH mice. Particulars: 10 mg/kg oral QD 9-12 wks, mean±SD. The class given is in vivo, C57BL/6J mice. As to the method:
(§3) The viability, clinical signs and behavior were monitored daily. Body weight was recorded daily before drug administration. […] The animals were sacrificed by exsanguination through direct cardiac puncture under ether anesthesia (Wako Pure Chemical Industries).

The nature of series [5]: Body weight and general condition of NASH mice. Particulars: mouse, in vivo. On the procedure: as §3
For series [6], the system named is NASH mice. In words: Serum ALT in NASH mice. The class given is in vivo, C57BL/6J mice. To be noted: 10 mg/kg oral QD 9-12 wks, mean±SD, Disease-control 38±8, no significant difference. As to the method:
as §2

Series [7] concerns NASH mice. In words: Sirius red staining, fibrosis area in liver of NASH mice. It is filed as in vivo, C57BL/6J mice. Particulars: NASH mice, 10 mg/kg oral QD 9-12 wks, 12 weeks of age, mean ± SD, n = 8; Disease-control 1.09 ± 0.27; significantly decreased; 10 mg/kg. As to the method:
C57BL/6J mice (15-day pregnant female) were obtained from Charles River Laboratories Japan (Kanagawa, Japan). All animals used in this study were housed and cared for in accordance with the Japanese Pharmacological Society Guidelines for Animal Use. The animals were maintained in a SPF facility under controlled conditions of temperature (23±2° C.), humidity (45±10%), lighting (12-hour artificial light and dark cycles; light from 8:00 to 20:00) and air exchange. A high pressure (20±4 Pa) was maintained in the experimental room to prevent contamination of the facility. The animals were housed in polycarbonate cages KN-600 (Natsume Seisakusho, Japan) with a maximum of 4 mice per cage. Sterilized PULMASμ (Material Research Center, Japan) was used for bedding and replaced once a week. Sterilized solid HFD was provided ad libitum, being placed in the metal lid on top of the cage. Pure water was provided ad libitum from a water bottle equipped with a rubber stopper and a sipper tube. Water bottles were replaced once a week, cleaned and sterilized in autoclave and reused. Mice were identified by numbers engraved on earrings. Each cage was labeled with a specific identification code.

For series [8], the system named is NASH mice. Briefly: Liver hydroxyproline content in NASH mice. It is filed as in vivo, C57BL/6J mice. To be noted: μg per mg total protein, 10 mg/kg oral QD 9-12 wks, mean±SD, Disease-control 1.09±0.42, no significant difference. As to the method: To quantify liver hydroxyproline content, frozen liver samples (35-45 mg) were processed by an alkaline-acid hydrolysis method as follows: the livers were defatted with 100% acetone, dried in the air, dissolved in 2N NaOH at 65° C., and autoclaved at 121° C. for 20 minutes. The lysed samples (400 μL) were acid-hydrolyzed with 400 μL of 6N HCl at 121° C. for 20 minutes, and neutralized with 400 μL of 4N NaOH containing 10 mg/mL activated carbon. AC buffer (2.2M acetic acid/0.48M citric acid, 400 μL) was added to the samples, followed by centrifugation to collect the supernatant. To construct a standard curve of hydroxyproline, serial dilutions of trans-4-hydroxy-Lproline (Sigma-Aldrich) were prepared starting at 16 μg/mL. The prepared samples and standards (each 400 μL) were mixed with 400 μL chloramine T solution (Wako Pure Chemical Industries, Japan) and incubated for 25 minutes at room temperature. The samples were then mixed with Ehrlich's solution (400 μL) and heated at 65° C. for 20 minutes to develop the color. After samples were cooled on ice and centrifuged to remove precipitates, the optical density of each supernatant was measured at 560 nm. The concentrations of hydroxyproline were calculated from the hydroxyproline standard curve. Protein concentrations of liver samples were determined using a BCA protein assay kit (Thermo Fisher Scientific, USA) and used to normalize the calculated hydroxyproline values. Hydroxyproline levels were expressed as μg per mg total protein.

For series [9], the system named is TIMP-1. In words: Quantitative RT-PCR of liver, TIMP-1 mRNA, NASH mice. It is filed as in vivo, C57BL/6J mice. To be noted: 10 mg/kg oral QD 9-12 wks, 12 weeks of age, mean ± SD, n = 8, Normal 1.00 ± 0.25, Disease-control 7.04 ± 2.13, tended to be down-regulated, 10 mg/kg. As to the method: as §1
Series [10] relates to NASH mice. In words: Whole blood glucose in NASH mice. It is filed as in vivo, C57BL/6J mice. To be noted: 10 mg/kg oral QD 9-12 wks, mean±SD, Disease-control 682±63, significantly increased. As to the method:
as §2

Series [11] deals with NASH mice. In words: Liver TG content in NASH mice. It is filed as in vivo, C57BL/6J mice. Particulars: 10 mg/kg oral QD 9-12 wks, mean±SD, Disease-control 67.7±17.7, significant decrease. On the procedure:
Liver total lipid-extracts were obtained from right lobes by Folch's method (Folch J. et al, J. Biol. Chem. 1957; 226 (1): 497). The livers were homogenized in chloroform-methanol (2:1, v/v) and incubated overnight at room temperature. After washing with chloroform-methanol-water (8:4:3, v/v/v), the extracts were evaporated to dryness, and dissolved in isopropanol. Liver TG levels were measured by Triglyceride E-test (Wako Pure Chemical Industries). Extracts were diluted 2- to 4-fold in isopropanol when the TG contents exceed the limit of detection.

For series [12], the system named is NASH mice. In words: HE staining and NAFLD Activity score in NASH mice. To be noted: 10 mg/kg oral QD 9-12 wks, compared with Disease-control group.
Description: NASH was induced in 40 male mice by a single subcutaneous injection of 200 μg streptozotocin (Sigma-Aldrich, USA) 2 days after birth and feeding with high fat diet (HFD, 57 kcal % fat, cat# HFD32, CLEA Japan, Japan) after 4 weeks of age. The mice were randomized into 5 groups of 8 mice at 9 weeks of age. Eight male littermates, fed with normal diet (cat# CE-2, CLEA Japan) without streptozotocin treatment, were used for the Normal group.
The test substance solution was filled in the osmotic pumps at concentrations determined based on the individual body weight at the start of treatment (day 0). Telmisartan was administered by oral route in a volume of 10 mL/kg body weight.
Telmisartan was administered once daily at a dose of 10 mg/kg body weight.
For HE staining, sections were cut from paraffin blocks of liver tissue prefixed in Bouin's solution and stained with Lillie-Mayer's Hematoxylin (Muto Pure Chemicals, Japan) and eosin solution (Wako Pure Chemical Industries).

SMILES strings stand for the structures.

As to `CCCc1nc2c(C)cc(-c3nc4ccccc4n3C)cc2n1Cc1ccc(-c2ccccc2C(=O)O)cc1` [Telmisartan, reference compound], the “Collagen Type 3 mRNA expression level (relative, normalized to 36B4)” value in series [1] is 1.73±0.33. For the same compound, in [2], the “Serum TG” value was 843 ± 609 mg/dL. For the same compound, the “α-SMA mRNA expression level (relative, normalized to 36B4)” value in [3] was 1.83±0.36. Moreover, the Liver-to-body weight ratio in series [4] (Disease-control 8.1±0.6, significant decrease) is on record as 6.9±0.7%. Moreover, in series [4] (Disease-control 1867±183, significant decrease), the Mean liver weight came to 1376 ± 80 mg. Moreover, in series [5], the General condition entry is reported as “No deterioration”. The “Serum ALT” value in series [6] is listed as 35±6 U/L. Also, the “Sirius red-positive area (fibrosis area)” value in [7] is listed as 0.50±0.10%. The compound also returned a Liver hydroxyproline content in [8] of 0.95 ± 0.25 µg/mg. For the same compound, in [9], the “TIMP-1 mRNA expression level (relative, normalized to 36B4)” value worked out at 4.10±1.18. The “Whole blood glucose (non-fasting)” value in [10] is 880 ± 39 mg/dL. In [11], the “Liver TG content” value came to 30.6 ± 5.6 mg/g. In series [12], the “HE-stained liver sections: fat deposition, hepatocellular ballooning and inflammatory cell infiltration” value was “marked improvements”.
